US10160771B2, “Hepatitis C virus inhibitors and uses thereof in preparation of drugs” (priority 2014, dated 2018)

Tests used:
[1] = system: HCV genotype 1a (HCV-1a) replicon cells; experiment: HCV genotype 1a replicon luciferase assay (EC50); type: cell-based, hepatitis C virus genotype 1a (H77 clone); conditions: 3 days, luciferase (Bright-Glo)
In short: (§1)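 EC50 values come from nonlinear fitting of inhibition derived from replicon luciferase signal. Cells (8000/well) were treated 3 days with duplicate 6-point, 5-fold dilutions, starting at 100, 10 or 1 nM, with 0.5% DMSO.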

[2] = system: HCV genotype 1b (HCV-1b) replicon cells; experiment: HCV genotype 1b replicon luciferase assay (EC50); type: cell-based, hepatitis C virus genotype 1b (Con1 clone); conditions: 3 days, luciferase (Bright-Glo)
In short: as §1

[3] = system: HCV-1b replicon cells; experiment: Cell Titer-fluor cell activity assay in HCV-1b replicon cells (CC50); type: cell-based; conditions: 3 days
In short: (§2)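 CC50 derived by nonlinear fitting of inhibition % from Cell Titer-fluor signal (405/515 nm, 30 min). Cells: genotype 1b Con1 replicon carrying E1202G, T1280I, K1846T, seeded 8000/well with compound for 3 days, 37 °C, 0.5% DMSO; 6 points, 5-fold dilution, top 100, 10 or 1 nM, duplicates.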

[4] = in vitro; type: cell-based; conditions: HCV 1a replicon cells, 3 days, Cell Titer-fluor
Protocol: The EC50 and CC50 values of anti-HCV compounds were determined by HCV genotype 1a (HCV-1a) and 1B (HCV-1b) stable transfer replication (replicon) cells. The source of genotype 1a replicon is H77 clones containing K1691R, K2040R and S2204I adaptive mutations. The source of genotype 1b replicon is Con1 clones containing E1202G, T1280I and K1846T adaptive mutations.
HCV Replicon Cell Lines: HCV-1a and HCV-1b Cells
The compound powder was dissolved in 100% DMSO. Then the compound was diluted 5 times with 6 points, and added into the cell plate with Echo liquid handler. Ensure the final concentration of DMSO was 0.5%. Each compound was tested in double holes. Maximum initial concentration was 100, 10 or 1 nM, 5 times dilution, 6 points.
b) Cell Culture (HCV-1a or HCV-1b Replicon Cell):
1) absorbing the culture supernatant of the cell culture and washing the cells with 10 mL PBS.
2) adding preheated pancreatin to the washed cell culture flasks, rotating culture bottle to make the bottom of the culture bottle uniformly covered by pancreatin, then placed into 37° C., 5% CO2 incubator to digest.
3) suspending cells in each T150 culture flask with 10-15 mL culture medium, absorbing 0.1 mL liquid and diluting 2 times by trypan blue solution as counted.
4) diluting cells to 8×10^4/mL with the culture medium, adding the diluted cells into the compound-containing 96-well plate (Greiner, Cat.#655090) (100 μL/well, 8000 cells/well) with automatic liquid separator (Thermo Scientific). Then place into a 37° C., 5% CO2 incubator for 3 days. Cell control well: no compound, only containing 0.5% DMSO.
5) adding chemiluminescent substrate Cell Titer-fluor to the cell well, after incubation for 30 minutes, detecting the signal by chemiluminescence detection system Envison (Ex at 405 nm and read at 515 nm). The effect of the compounds on the activity of HCV replicon cells was analyzed according to the luminescence data, which was used to calculate the CC50 values.
The EC50 or CC50 values were obtained by nonlinear fitting analysis on inhibition percentage (inh %) data with GraphPad Prism software.

[5] = Cell Titer-fluor cell activity assay in HCV-1b replicon cells (CC50); type: cell-based
In short: as §2

Row | Structure (SMILES) | EC50 [1] [nM] | EC50 [2] [nM] | CC50 [3] [nM] | EC50 ([1]; Hepatitis C virus, 72 h) [nM] | EC50 ([2]; Hepatitis C virus, 72 h) [nM] | CC50 [4] [nM] | CC50 at 3 days [5] [nM]
1 | COC(=O)N[C@H](C(=O)N1CCC[C@H]1c1ncc(-c2ccc(-c3ccc(-c4cnc([C@H]5C6CCC(C6)[C@@H]5C(=O)NC(C)c5cccnc5)[nH]4)cc3)cc2)[nH]1)C(C)C (single isomer, unassigned) [AA_204_C] | 1 to 10 | 0.001 to 0.1 | > 1 |  |  |  | 
2 | COC(=O)N[C@H](C(=O)N1CCCC1c1ccc(-c2ccc(-c3ccc(-c4cnc([C@@H]5CCCN5C(=O)[C@@H](NC(=O)OC)[C@@H](C)OC)[nH]4)cc3)cc2)[nH]1)[C@@H](C)OC (single isomer, unassigned) [AG_072_B] | 1 to 10 | 0.101 to 1 | > 1 |  |  |  | 
3 | COC(=O)N[C@H](C(=O)N1CCC[C@H]1c1ncc(-c2ccc(-c3ccc(-c4cnc(C5C6CCC(C6)[C@H]5C(=O)N[C@H](c5cccnc5)C(C)C)[nH]4)cc3)cc2)[nH]1)[C@@H](C)OC (stereo partly shown) [AA_271_B] | 10 to 100 | 0.101 to 1 | > 1 |  |  |  | 
4 | COC(=O)N[C@H](C(=O)N1CCC[C@H]1c1ncc(-c2ccc(-c3ccc(-c4cnc(C5C6CCC(C6)[C@@H]5C(=O)N[C@H](C)c5cccnc5)[nH]4)cc3)cc2)[nH]1)[C@@H](C)OC (single isomer, unassigned) [AA_253_C] | 10 to 100 | 1 to 10 | > 1 |  |  |  | 
5 | COC(=O)N[C@H](C(=O)N1CCC[C@H]1c1ncc(-c2ccc(-c3ccc(-c4[nH]c([C@@H]5CCCN5C(=O)[C@@H](NC(=O)OC)[C@@H](C)OC)c5c4COC5)cc3)cc2)[nH]1)[C@@H](C)OC [AG_080_A] | 0.001 to 0.1 | 0.001 to 0.1 | > 5 |  |  |  | 
6 | COC(=O)N[C@H](C(=O)N1CCC[C@H]1c1ncc(-c2ccc(-c3ccc(-c4cnc([C@H]5C6CCC(C6)[C@@H]5C(=O)NC(c5cccnc5)C(C)C)[nH]4)cc3)cc2)[nH]1)C(C)C (single isomer, unassigned) [AA_233_C] | 10 to 100 | 0.101 to 1 | > 1 |  |  |  | 
7 | COC(=O)N[C@H](C(=O)N1CCCC1c1ccc(-c2ccc(-c3ccc(-c4cnc(C5CCCN5C(=O)[C@@H](NC(=O)OCCF)C(C)C)[nH]4)cc3)cc2)[nH]1)C(C)C (stereo partly shown) [AG_062] | 10 to 100 | 0.101 to 1 | > 10 |  |  |  | 
8 | COC(=O)N[C@H](C(=O)N1CCC[C@H]1c1ncc(-c2ccc(-c3ccc(-c4cnc(C5C6CCC(C6)[C@@H]5C(=O)N[C@H](c5cccnc5)C(C)C)[nH]4)cc3)cc2)[nH]1)[C@@H](C)OC (stereo partly shown) [AA_271_A] | 0.101 to 1 | 0.001 to 0.1 | > 1 |  |  |  | 
9 | COC(=O)NC(C(=O)N1CCCC1c1[nH]c(-c2ccc(-c3ccc(-c4cnc([C@@H]5CCCN5C(=O)[C@@H](NC(=O)OC)C(C)C)[nH]4)cc3)cc2)c2c1CCC2)C1CCOC1 (single isomer, unassigned) [AG_025_C] | 10 to 100 | 0.101 to 1 | > 10 |  |  |  | 
10 | COC(=O)N[C@H](C(=O)N1CCC[C@H]1c1ncc(-c2ccc(-c3ccc(-c4cnc(C5C6CCC(C6)[C@@H]5C(=O)NC(C)c5cnccn5)[nH]4)cc3)cc2)[nH]1)[C@@H](C)OC (single isomer, unassigned) [AA_281_C] | 1 to 10 | 0.101 to 1 | > 1 |  |  |  | 
11 | COC(=O)N[C@H](C(=O)N1CC2(C[C@H]1c1ncc(-c3ccc(-c4ccc(-c5[nH]c([C@@H]6CCCN6C(=O)[C@@H](NC(=O)OC)[C@@H](C)OC)c6c5CCC6)cc4)cc3)[nH]1)OCCO2)[C@@H](C)OC [AG_089] | 1 to 10 | 0.001 to 0.1 | > 1 |  |  |  | 
12 | COC(=O)NC(C(=O)N1CCCC1c1[nH]c(-c2ccc(-c3ccc(-c4cnc([C@@H]5CCCN5C(=O)[C@@H](NC(=O)OC)C(C)C)[nH]4)cc3)cc2)c2c1CCC2)C1CCOC1 (single isomer, unassigned) [AG_025_B] | 10 to 100 | 0.001 to 0.1 | > 10 |  |  |  | 
13 | COC(=O)NC(C(=O)N1CCCC1c1[nH]c(-c2ccc(-c3ccc(-c4cnc([C@@H]5CCCN5C(=O)[C@@H](NC(=O)OC)C(C)C)[nH]4)cc3)cc2)c2c1CCC2)C1CCOCC1 (stereo partly shown) [AG_036] |  |  |  | 1 to 10 | 0.001 to 0.1 | > 100 | > 10
